The results in this text go back to patent US20060217390A1, “Cycloalkl, aryl and heteroaryl amino isothiazoles for the treatment of Hepatitis C virus” (priority 2005, published 2006).

Read-outs that look alike come from different tables or passages of the source.

In data set [1] the test system is HCV Con1 subgenomic replicon in Huh-7 cells (NK/luc-ubi-neo). Briefly: HCV replicon assay (luciferase reporter). The data set is classed as cell-based. The following applies: anti-HCV activity, class symbols; read-out: Range of EC50 in HCV replicon assay. As for the experimental part:
A human hepatoma cell line (Huh-7) containing replicating HCV Con1 subgenomic replicon with a luciferase reporter gene (luc-ubi-neo) was used to evaluate anti-HCV activity of the compounds. In this assay, the level of luciferase signal correlates directly with the viral RNA replication. The HCV replicon-reporter cell line (NK/luc-ubi-neo) was cultured in DMEM medium supplemented with 10% fetal bovine serum and 0.5 mg/ml Geneticin (G418). Cells were maintained in a subconfluent state to ensure high levels of HCV replicon RNA synthesis.
To evaluate the antiviral activity of compounds, serial dilutions were prepared with concentrations ranging from 0.14 to 300 μM. Diluted compounds were transferred to a 96-well plate followed by the addition of replicon cells (6000 cells per well). Cells were incubated with the compounds for 48 hours after which luciferase activity was measured.
(Replicon systems follow genome replication, usually without infectious particles.)

Another data set concerns Huh-7 cells. From the text:
A Huh-7 cell line carrying a luciferase reporter gene (driven by a HIV LTR promoter) stably integrated into the chromosome was used to analyze the cytotoxic effect of the selected compounds. This cell line (LTR-luc) was maintained in DMEM medium with 10% FBS. Design of the cytotoxicity assay was similar to that of the HCV replicon assay.

Another data set deals with T1, HCV replicase complexes (Hepatitis C virus genotype 1b, UniProt Q9WMX2).
T1 construct: viral non-structural proteins (NS3, NS4A, NS4B, NS5A and NS5B); expressed in transfected cells; host or cells: HCV subgenomic replicon cell line (I389/NS3-3)
Briefly: In vitro HCV replicase complex assay. The following applies: crude membrane fraction of I389/NS3-3 replicon cells. The data set is classed as biochemical. As for the experimental part:
Crude membrane fraction containing the replicase complexes (RC) was isolated from the HCV subgenomic replicon cell line (I389/NS3-3) (Lohmann et al., Science 285:110-113, 1999) through Dounce homogenization and high-speed centrifugation (Lai et al., J. Virol. 73:2295-2300). Standard assay mixtures contained 50 mM HEPES (pH 7.3), 10 mM KCl, 10 mM MgCl2, 20 units of ribonuclease inhibitor, 10 μg/ml actinomycin D, 0.5 mM of ATP, GTP, CTP, 10 μCi of [α-^33P] UTP and 0.5 μl of the membrane fraction in a total volume of 20 μl. To determine the inhibitory effect of compounds on the HCV replicase complexes, pre-incubation of the RC membrane fraction with tested compounds was performed in a reaction mixture at 4° C. for 15 minutes. The reaction was then initiated by the addition of the radiolabeled UTP and cold nucleotides and incubated at 30° C. for 1 hour. Products were extracted with phenol/chloroform, precipitated with ethanol, and separated on a 1% agarose gel. After electrophoresis, the gel was dried prior to autoradiography. Radioactivity incorporated into viral RNA was quantitated by using a Phosphorimager (Amersham Biosciences Corp., Piscataway, N.J.) and was used to determine the IC50 value. A number of the exemplary compounds were potent inhibitors that blocked viral RNA synthesis catalyzed by HCV replicase complexes, with IC50 values in the nM range (Table 2).

The mark [2] stands for this setting: read-out: Range of CC50 in cytotoxicity assay, cytotoxicity, class symbols.

T1 sequence (Q9WMX2 2420-3010, one chain of several): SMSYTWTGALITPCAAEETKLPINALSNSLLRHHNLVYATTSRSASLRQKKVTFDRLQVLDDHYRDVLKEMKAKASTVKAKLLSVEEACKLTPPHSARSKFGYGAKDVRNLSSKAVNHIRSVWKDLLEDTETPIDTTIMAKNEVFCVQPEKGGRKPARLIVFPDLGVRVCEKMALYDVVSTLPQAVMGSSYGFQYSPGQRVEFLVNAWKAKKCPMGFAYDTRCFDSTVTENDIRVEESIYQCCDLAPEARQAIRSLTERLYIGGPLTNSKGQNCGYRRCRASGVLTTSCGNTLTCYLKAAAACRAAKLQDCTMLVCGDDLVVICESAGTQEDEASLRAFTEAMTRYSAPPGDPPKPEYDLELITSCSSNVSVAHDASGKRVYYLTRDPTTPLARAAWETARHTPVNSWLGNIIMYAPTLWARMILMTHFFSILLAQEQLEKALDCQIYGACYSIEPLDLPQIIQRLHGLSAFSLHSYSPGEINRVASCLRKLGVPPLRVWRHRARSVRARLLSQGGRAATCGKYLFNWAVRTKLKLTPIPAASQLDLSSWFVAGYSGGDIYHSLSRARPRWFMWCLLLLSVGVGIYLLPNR

Take `N#Cc1c(Nc2ccccc2Cl)s[nH]c1=O`: in data set [1], the EC50 (in general, the concentration needed to bring the measured effect to its halfway point) lay in the range of 10 to 50 µM. For the same compound, the CC50 (in general, the concentration at which the toxic effect on the cells reaches its halfway point) in the data set with Huh-7 cells was > 50 µM.
For the compound `COc1ccc(Nc2s[nH]c(=O)c2C#N)cc1`, the EC50 in data set [1] lay within 10 to 50 µM. Further, the CC50 with Huh-7 cells is > 50 µM.
Consider `COc1ccccc1Nc1s[nH]c(=O)c1C#N`, for which the half-maximal effective concentration (EC50) in data set [1] lay in the range of 10 to 50 µM. In addition, the CC50 in the data set with Huh-7 cells is > 50 µM.
For the compound `N#Cc1c(Nc2ccccc2C(F)(F)F)s[nH]c1=O`, the EC50 in data set [1] was 10 to 50 µM. The CC50 in the data set on Huh-7 cells was > 50 µM.
Consider `CC(C)c1cccc(C(C)C)c1Nc1s[nH]c(=O)c1C#N`, for which the EC50 in data set [1] lay within 10 to 50 µM. Also, the CC50 in the data set on Huh-7 cells is > 50 µM.
For `CC(C)c1ccccc1Nc1s[nH]c(=O)c1C#N` the same measures were > 50 µM and > 50 µM.
On to `N#Cc1c(Nc2ccc(F)cc2)s[nH]c1=O`, for which the EC50 in data set [1] was 10 to 50 µM. Besides, the CC50 in the data set on Huh-7 cells was > 50 µM.
In the case of `COC(=O)c1cccc(Nc2s[nH]c(=O)c2C#N)c1`, the EC50 in data set [1] is > 50 µM. Moreover, the CC50 in the data set on Huh-7 cells is > 50 µM.
With `COC(=O)c1ccc(Nc2s[nH]c(=O)c2C#N)cc1`, the EC50 in data set [1] is 10 to 50 µM. For the same compound, in the data set on Huh-7 cells (setting [2]), the CC50 is > 50 µM.
Turning to `N#Cc1c(Nc2ccccc2F)s[nH]c1=O`, the EC50 in data set [1] lay within 10 to 50 µM. The CC50 with Huh-7 cells was > 50 µM.
As for `N#Cc1c(Nc2cc(C(F)(F)F)cc(C(F)(F)F)c2)s[nH]c1=O`, in data set [1], the EC50 lay within 1 to 10 µM. Further, the CC50 in the data set on Huh-7 cells (setting [2]) was > 50 µM.
Regarding `COC(=O)c1ccccc1Nc1s[nH]c(=O)c1C#N`, the half-maximal effective concentration (EC50) in data set [1] was > 50 µM. Moreover, in the data set with Huh-7 cells, the CC50 is > 50 µM.
Regarding `N#Cc1c(NC23CC4CC(CC(C4)C2)C3)s[nH]c1=O`, the EC50 in data set [1] fell in the range of 1 to 10 µM. Also, the CC50 with Huh-7 cells was > 50 µM.
For `N#Cc1c(Nc2ccc(Cl)cc2Cl)s[nH]c1=O`, in data set [1], the EC50 was in the range of 10 to 50 µM. Also, the CC50 in the data set with Huh-7 cells is > 50 µM.
Turning to `N#Cc1c(Nc2cccc(Cl)c2Cl)s[nH]c1=O`, in data set [1], the EC50 was > 50 µM. The half-maximal cytotoxic concentration (CC50) in the data set on Huh-7 cells is > 50 µM.
On to `N#Cc1c(NCC2CCCO2)s[nH]c1=O` (stereo not shown), for which, in data set [1], the EC50 was > 50 µM. Moreover, the CC50 in the data set on Huh-7 cells was > 50 µM.
For the compound `N#Cc1c(NCC2CCCCC2)s[nH]c1=O`, in data set [1], the EC50 is 1 to 10 µM. Further, the CC50 with Huh-7 cells is > 50 µM.
For the compound `N#Cc1c(Nc2ccc(I)cc2)s[nH]c1=O`, the EC50 in data set [1] lay within 1 to 10 µM. For the same compound, the CC50 in the data set on Huh-7 cells is > 50 µM.
With `N#Cc1c(Nc2ccc(I)cc2Cl)s[nH]c1=O`, the EC50 in data set [1] is 1 to 10 µM. The half-maximal cytotoxic concentration (CC50) with Huh-7 cells (setting [2]) is < 50 µM.
For the compound `N#Cc1c(Nc2ccc(I)c(Cl)c2)s[nH]c1=O`, the EC50 in data set [1] is < 1 µM. Moreover, the CC50 in the data set with Huh-7 cells (setting [2]) was > 50 µM.
As to `N#Cc1c(Nc2ccc(C(=O)O)cc2)s[nH]c1=O`, the 50% effective concentration (EC50) in data set [1] was > 50 µM. For the same compound, the 50% cytotoxic concentration (CC50) with Huh-7 cells is > 50 µM.
Take `CN(C)c1ccc(Nc2s[nH]c(=O)c2C#N)c2ccccc12`: in data set [1], the EC50 is > 50 µM. The CC50 in the data set with Huh-7 cells (setting [2]) was > 50 µM.
On to `CN(C)c1ccc2ccccc2c1Nc1s[nH]c(=O)c1C#N`, for which the EC50 in data set [1] is > 50 µM. In the data set on Huh-7 cells (setting [2]), the CC50 was > 50 µM.
Turning to `N#Cc1c(NC2CCc3ccccc32)s[nH]c1=O` (stereo not shown), the EC50 in data set [1] is 1 to 10 µM. Further, in the data set with Huh-7 cells, the half-maximal cytotoxic concentration (CC50) was > 50 µM.
With `CCCC1CCC(c2ccc(Nc3s[nH]c(=O)c3C#N)cc2)CC1` (stereo not shown), the EC50 in data set [1] is 1 to 10 µM. Besides, the CC50 with Huh-7 cells (setting [2]) is < 50 µM.
`N#Cc1c(Nc2ccc(C(=O)c3ccccc3)cc2)s[nH]c1=O`: the EC50 in data set [1] was 10 to 50 µM. The CC50 in the data set with Huh-7 cells (setting [2]) is > 50 µM.
For `N#Cc1c(Nc2ccc(Cc3ccccc3)cc2)s[nH]c1=O`, the EC50 in data set [1] is > 50 µM. For the same compound, in the data set with Huh-7 cells, the CC50 is > 50 µM.
Turning to `N#Cc1c(Nc2ccc(S(=O)(=O)Nc3ccccc3)cc2)s[nH]c1=O`, in data set [1], the EC50 was > 50 µM. Also, the CC50 with Huh-7 cells was > 50 µM.
In the case of `Cc1cccc(C)c1Sc1ccc(Nc2s[nH]c(=O)c2C#N)cc1`, in data set [1], the EC50 fell in the range of 1 to 10 µM. The CC50 in the data set on Huh-7 cells (setting [2]) was < 50 µM.
Take `N#Cc1c(NCCc2ccc(O)cc2)s[nH]c1=O`: in data set [1], the half-maximal effective concentration (EC50) was > 50 µM. The CC50 with Huh-7 cells was > 50 µM.
Consider `N#Cc1c(NCCc2cccs2)s[nH]c1=O`, for which the EC50 in data set [1] was > 50 µM. For the same compound, in the data set on Huh-7 cells, the CC50 was > 50 µM.
For the compound `N#Cc1c(Nc2cc(F)c(Br)c(F)c2)s[nH]c1=O`, the EC50 in data set [1] is < 1 µM. For the same compound, in the data set on Huh-7 cells (setting [2]), the CC50 was > 50 µM.
`N#Cc1c(Nc2cc(Cl)c(Cl)c(Cl)c2)s[nH]c1=O`: in data set [1], the EC50 is < 1 µM. In the data set with Huh-7 cells, the CC50 is < 50 µM.
In the case of `N#Cc1c(Nc2ccc(Cl)c(Cl)c2)s[nH]c1=O`, the half-maximal effective concentration (EC50) in data set [1] was < 1 µM. In addition, the CC50 in the data set on Huh-7 cells was > 50 µM.
Turning to `N#Cc1c(Nc2ccc(Br)c(F)c2)s[nH]c1=O`, the EC50 in data set [1] is < 1 µM. In the data set with Huh-7 cells (setting [2]), the CC50 is > 50 µM.
For the compound `N#Cc1c(Nc2ccc(Br)c(Cl)c2)s[nH]c1=O`, the EC50 in data set [1] is < 1 µM. The 50% cytotoxic concentration (CC50) in the data set on Huh-7 cells was > 50 µM.
In the case of `N#Cc1c(Nc2cc(Br)cc(C(F)(F)F)c2)s[nH]c1=O`, the EC50 in data set [1] is < 1 µM. Also, in the data set with Huh-7 cells (setting [2]), the CC50 was > 50 µM.
For `N#Cc1c(Nc2ccc(Br)cn2)s[nH]c1=O` the same measures were 10 to 50 µM and > 50 µM.
On to `N#Cc1c(Nc2ccc(Br)nc2)s[nH]c1=O`, for which the EC50 in data set [1] was 10 to 50 µM. In addition, the CC50 with Huh-7 cells is > 50 µM.
For `N#Cc1c(Nc2ccc(Cl)cn2)s[nH]c1=O`, the EC50 in data set [1] lay within 10 to 50 µM. In addition, the CC50 in the data set with Huh-7 cells (setting [2]) was > 50 µM.
For the compound `N#Cc1c(Nc2ccnc(Cl)c2)s[nH]c1=O`, in data set [1], the EC50 was 10 to 50 µM. In addition, the CC50 with Huh-7 cells was > 50 µM.
For `N#Cc1c(Nc2ccc(Br)c(C(F)(F)F)c2)s[nH]c1=O`, the 50% effective concentration (EC50) in data set [1] was 1 to 10 µM. Further, the 50% cytotoxic concentration (CC50) in the data set with Huh-7 cells (setting [2]) is > 50 µM.
Turning to `N#Cc1c(Nc2cccc(Br)n2)s[nH]c1=O`, the EC50 in data set [1] was 10 to 50 µM. In addition, the CC50 in the data set with Huh-7 cells (setting [2]) was > 50 µM.
In the case of `N#Cc1c(Nc2cc(Cl)nc(Cl)c2)s[nH]c1=O`, the EC50 in data set [1] lay within 1 to 10 µM. Besides, in the data set on Huh-7 cells (setting [2]), the cytotoxic concentration (CC50) is < 50 µM.
With `N#Cc1c(Nc2ccc(C(F)(F)F)cn2)s[nH]c1=O`, in data set [1], the EC50 lay within 10 to 50 µM. The CC50 in the data set with Huh-7 cells is > 50 µM.
Regarding `N#Cc1c(O)nsc1Nc1cc(Cl)cc(Cl)c1`, the half-inhibitory concentration (IC50) – broadly, the concentration needed to halve the response being measured – against HCV replicase complexes is < 0.05 µM.
Take `N#Cc1c(O)nsc1Nc1ccc(Cl)cc1`: the half-inhibitory concentration (IC50) on HCV replicase complexes is 0.05 to 0.1 µM.
In the case of `N#Cc1c(Nc2ccc(Br)cc2)s[nH]c1=O`, at HCV replicase complexes, the IC50 is < 0.05 µM.
At HCV replicase complexes, `N#Cc1c(O)nsc1Nc1cc(C(F)(F)F)cc(C(F)(F)F)c1` showed a 50% inhibitory concentration (IC50) of 0.1 to 0.25 µM.
For `N#Cc1c(Nc2ccc(Cl)c(C(F)(F)F)c2)s[nH]c1=O` [drawing 430], the EC50 in data set [1] lay in the range of 1 to 10 µM. In addition, in the data set with Huh-7 cells, the CC50 is > 50 µM.
`N#Cc1c(Nc2ccc(Cl)c(C(F)(F)F)c2)s[nH]c1=O` [drawing 483] gave a half-inhibitory concentration (IC50) at HCV replicase complexes of 0.05 to 0.1 µM.
